{
  "source": "patent US20100291163A1",
  "about": "“ORAL CARE COMPOSITION COMPRISING NANOPARTICULATE TITANIUM DIOXIDE” (priority 2006, published 2010)",
  "experiment": "Microindentation as a measure of enamel hardness: softening by 1.0% w/w citric acid pH 3.8 after 120 s treatment",
  "parameters": "species or system human",
  "conditions": "FIG. 1",
  "protocol": "Human enamel chips were mounted in acrylic resin and polished flat using silicon carbide paper (1200 and 2400 grit). The specimens were then randomised and divided into three treatment groups (n=6). The treatment groups were 300 ppm fluoride (sodium fluoride); glycerin-coated titanium dioxide (with a mean particle size of 20 nm) aqueous suspension, 2.5% w/v (UV Titan M212, Kemira, Aston Chemicals); and deionised water. The baseline hardness of each specimen was determined using a Struers Duramin Microindentor, fitted with a Vickers diamond indenter. Hardness values were expressed as Vickers Hardness Numbers (VHN). A load of 1.961N was applied to the specimens, with a dwell time of 20 seconds.\nSpecimens were placed in 30 ml of one of the three test solutions with agitation for 120 seconds, before rinsing with deionised water. After treatment, microhardness measurements were repeated. Erosion was then performed by incubating the mounted specimens for 30 minutes in 10 ml of a 1.0% w/w solution of citric acid, pH 3.8. Specimens were removed from the erosive challenge at 10 minute intervals and the surface microhardness determined.\nThe values for enamel hardness have been normalised relative to the individual baseline microhardness values, thus data at subsequent time points reflects softening of the enamel. The error bars in FIG. 1 represent standard deviations.\nThe treatments tested in this study were: 2.5% w/v titanium dioxide aqueous suspensions, specifically 20 nm glycerin-coated titanium dioxide (UV Titan M212, Kemira, Aston Chemicals), 20 nm PVP-coated titanium dioxide (UV Titan M263, Kemira, Aston Chemicals), 17 nm Stearic acid-coated titanium dioxide (UV Titan M160, Kemira, Aston Chemicals) and 14 nm uncoated titanium dioxide (UV Titan X140, Kemira, Aston Chemicals). A glycerin only negative control was used in the study.",
  "data": [
    {"smiles": "[F-].[Na+]", "note": "[300 ppm fluoride, sodium fluoride]", "values": [
      {"measurement": "enamel softening (microhardness normalised to baseline) during citric acid exposure", "setting": "1.0% w/w citric acid pH 3.8, up to 30 min, 120 s treatment", "result": "softened during the period in which they were exposed to citric acid, increasingly so as the incubation time increased"},
      {"measurement": "enamel softening versus water-treated enamel", "setting": "after 20 and 30 mins in citric acid", "result": "softened significantly less than enamel treated with water"},
      {"measurement": "extent of enamel softening, fluoride versus nanoparticle suspension", "setting": "after 20 mins citric acid exposure", "result": "equivalent in their extent of softening"}
    ]}
  ]
}
